Source: patent US20120101083A1, “S1P1 AGONISTS COMPRISING A BICYCLIC N-CONTAINING RING” (GLAXO GROUP LIMITED, priority 2009, published 2012)
Structures can show the parent of a compound that is named as a salt.

What was measured:
[1] = biological target: T1, S1P1 receptor (S1P1 expressing RH7777 membranes) (Homo sapiens, UniProt P21453); experiment: S1P1 GTPγS assay; format: biochemical; conditions: tested in one of the above S1P1 assays (two GTPγS formats)
T1 construct: expressed in transfected cells; host or cells: RH7777 cells (membranes)
Summary of the method: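 Membranes from RH7777 cells expressing human S1P1 (1.5 μg/well) precoupled 30 min on ice to WGA SPA beads in 20 mM HEPES pH 7.4, 10 mM MgCl2, 100 mM NaCl, with 10 μM GDP and 90 μg/ml saponin. [35S]-GTPγS 0.5 nM final added with compound; SPA signal read immediately.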

[2] = biological target: T2, S1P1 (PathHunter CHO-K1 EDG1 β-Arrestin cell line) (Homo sapiens, UniProt P21453); experiment: S1P-1 β-Arrestin recruitment assay; format: cell-based; conditions: CHO-K1 EDG1 β-Arrestin cells, chemi-luminescence
T2 construct: host or cells: PathHunter CHO-K1 EDG1 β-Arrestin cell line
Protocol: S1P-1 β-Arrestin Recruitment Assay
β-Arrestin recruitment assays were carried out using the PathHunter CHO-K1 EDG1
β-Arrestin cell line (DiscoveRx Corporation) in a chemi-luminescence detection assay. This cell line stably expresses β-Arrestin 2 and S1P1 fused to complementing portions of β-galactosidase (‘EA’ and ‘pro-link’, respectively) which associate upon Arrestin recruitment to form functional β-galactosidase enzyme.
Cells were grown to 80% confluency in Growth Medium (F12 nutrient HAMS supplemented with 10% heat-inactivated USA FBS, 1% L-glutamax, 800 μg/ml Geneticin and 300 μg/ml Hygromycin). Cells were harvested from the flask using Enzyme Free Cell Dissociation Buffer (Gibco) and washed from flasks with Optimem solution (Gibco). Cells were then centrifuged at 1000 rpm for 2-3 min and resuspended in Assay Buffer (Prepared from Sigma kit H1387 supplemented with 20 ml/L HEPES, 4.7 ml/L NaHCO3, 0.1% pluronic acid F-68 solution, 0.1% BSA and adjusted to pH 7.4 using sodium hydroxide at 1×10^6 cells/ml. Cells were dispensed into assay plates containing compounds (100n1/well of a solution of test compound in 100% DMSO) at 1×10^4 cells/well and incubated at 37° C./5% CO2 for 90 min followed by 15 min at room temperature. 5 μl detection mix (1 part Galacton Star, 5 parts Emerald II, 19 parts Assay Buffer; DiscoveRx) were added per well and the plates incubated at room temperature for 60 min. Luminescence was quantified using a Viewlux plate reader.

T1 sequence (P21453 whole entry): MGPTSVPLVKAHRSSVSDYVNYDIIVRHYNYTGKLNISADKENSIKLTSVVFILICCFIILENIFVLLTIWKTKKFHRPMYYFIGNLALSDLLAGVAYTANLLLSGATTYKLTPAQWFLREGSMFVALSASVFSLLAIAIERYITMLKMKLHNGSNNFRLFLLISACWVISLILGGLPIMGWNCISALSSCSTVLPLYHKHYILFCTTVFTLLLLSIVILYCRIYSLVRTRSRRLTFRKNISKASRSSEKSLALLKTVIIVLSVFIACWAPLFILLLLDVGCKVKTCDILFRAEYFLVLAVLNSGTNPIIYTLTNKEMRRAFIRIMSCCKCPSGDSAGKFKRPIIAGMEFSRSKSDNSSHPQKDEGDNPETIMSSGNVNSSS
T2 sequence (P21453 whole entry): as above
T2 sequence (P32121 whole entry partner): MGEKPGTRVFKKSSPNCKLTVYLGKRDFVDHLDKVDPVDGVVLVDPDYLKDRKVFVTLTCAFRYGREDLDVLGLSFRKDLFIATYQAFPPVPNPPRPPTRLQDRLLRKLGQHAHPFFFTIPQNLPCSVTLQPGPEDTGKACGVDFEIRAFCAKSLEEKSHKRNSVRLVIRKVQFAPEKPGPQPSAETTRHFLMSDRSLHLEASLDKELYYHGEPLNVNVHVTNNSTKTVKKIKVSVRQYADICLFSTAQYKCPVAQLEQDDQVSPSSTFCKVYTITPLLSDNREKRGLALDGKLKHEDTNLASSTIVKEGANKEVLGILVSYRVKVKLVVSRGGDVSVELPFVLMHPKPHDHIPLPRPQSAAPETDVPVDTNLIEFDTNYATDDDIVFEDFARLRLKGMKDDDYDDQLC

SMILES	EC50 [1] [nM]	EC50 [2] [nM]
CC(C)Oc1ccc(-c2nc(-c3ccc4c(c3)CCN(CCC(N)=O)CC4)no2)cc1C#N [Example 22, 3-[7-(5-{3-Cyano-4-[(1-methylethyl)oxy]phenyl}-1,2,4-oxadiazol-3-yl)-1,2,4,5-tetrahydro-3H-3-benzazepin-3-yl]propanamide]	≤ 100	≤ 10
CNC(=O)CCCN1CCc2ccc(-c3noc(-c4ccc(OC(C)C)c(C#N)c4)n3)cc2CC1 [Example 24, 4-[7-(5-{3-Cyano-4-[(1-methylethyl)oxy]phenyl}-1,2,4-oxadiazol-3-yl)-1,2,4,5-tetrahydro-3H-3-benzazepin-3-yl]-N-methylbutanamide]	≤ 100	≤ 10
CC(C)Oc1ccc(-c2nc(-c3ccc4c(c3)CCN(CCCC(N)=O)CC4)no2)cc1C#N [Example 25, 4-[7-(5-{3-Cyano-4-[(1-methylethyl)oxy]phenyl}-1,2,4-oxadiazol-3-yl)-1,2,4,5-tetrahydro-3H-3-benzazepin-3-yl]butanamide]	≤ 100	≤ 10
CC(C)Oc1ccc(-c2nc(-c3ccc4c(c3)CCN(CCCC(=O)N(C)C)CC4)no2)cc1C#N [Example 26, 4-[7-(5-{3-Cyano-4-[(1-methylethyl)oxy]phenyl}-1,2,4-oxadiazol-3-yl)-1,2,4,5-tetrahydro-3H-3-benzazepin-3-yl]-N,N-dimethylbutanamide]	≤ 100	≤ 10
Cc1c(-c2noc(-c3ccc(OC(C)C)c(C#N)c3)n2)ccc2c1CCN(C(=O)CCN)C2 [Example 39, 5-[3-(2-β-Alanyl-5-methyl-1,2,3,4-tetrahydro-6-isoquinolinyl)-1,2,4-oxadiazol-5-yl]-2-[(1-methylethyl)oxy]benzonitrile hydrochloride]	≤ 100	≤ 10
CNCCC(=O)N1CCc2c(ccc(-c3noc(-c4ccc(OC(C)C)c(C#N)c4)n3)c2C)C1 [Example 40, 2-[(1-methylethyl)oxy]-5-{3-[5-methyl-2-(N-methyl-b-alanyl)-1,2,3,4-tetrahydro-6-isoquinolinyl]-1,2,4-oxadiazol-5-yl}benzonitrile hydrochloride]	≤ 100	≤ 10
Cc1c(-c2noc(-c3ccc(OC(C)C)c(C#N)c3)n2)ccc2c1CCN(C(=O)CCCN)C2 [Example 41, 5-{3-[2-(4-Aminobutanoyl)-5-methyl-1,2,3,4-tetrahydro-6-isoquinolinyl]-1,2,4-oxadiazol-5-yl}-2-[(1-methylethyl)oxy]benzonitrile hydrochloride]	≤ 100	≤ 10
Cc1c(-c2noc(-c3ccc(OC(C)C)c(C#N)c3)n2)ccc2c1CCN(C(=O)CN)C2 [Example 42, 5-[3-(2-Glycyl-5-methyl-1,2,3,4-tetrahydro-6-isoquinolinyl)-1,2,4-oxadiazol-5-yl]-2-[(1-methylethyl)oxy]benzonitrile hydrochloride]	≤ 100	≤ 10
CCNC(=O)CCCN1CCc2ccc(-c3noc(-c4ccc(OC(C)C)c(C#N)c4)n3)cc2CC1 [Example 44, 4-[7-(5-{3-cyano-4-[(1-methylethyl)oxy]phenyl}-1,2,4-oxadiazol-3-yl)-1,2,4,5-tetrahydro-3H-3-benzazepin-3-yl]-N-ethylbutanamide]	≤ 100	≤ 10
CC(C)Oc1ccc(-c2nnc(-c3ccc4c(c3)CCN(CCC(N)=O)C4)s2)cc1C#N [Example 47, 3-[6-(5-{3-cyano-4-[(1-methylethyl)oxy]phenyl}-1,3,4-thiadiazol-2-yl)-3,4-dihydro-2(1H)-isoquinolinyl]propanamide]	≤ 1000	≤ 100
N#Cc1cc(-c2nc(-c3ccc4c(c3)CCN(C(=O)CN)CC4)no2)ccc1OC(CF)CF [Example 54, 2-{[2-fluoro-1-(fluoromethyl)ethyl]oxy}-5-[3-(3-glycyl-2,3,4,5-tetrahydro-1H-3-benzazepin-7-yl)-1,2,4-oxadiazol-5-yl]benzonitrile]	≤ 100	≤ 10
Cc1c(-c2noc(-c3ccc(OC(C)C)c(C#N)c3)n2)ccc2c1CCN(C(=O)[C@H](N)[C@@H](C)O)C2 [Example 56, 5-[3-(2-D-allothreonyl-5-methyl-1,2,3,4-tetrahydro-6-isoquinolinyl)-1,2,4-oxadiazol-5-yl]-2-[(1-methylethyl)oxy]benzonitrile]	≤ 100	≤ 100
Cc1c(-c2noc(-c3ccc(OC(C)C)c(C#N)c3)n2)ccc2c1CCN(C(CO)CO)C2 [Example 64, 5-(3-{2-[2-hydroxy-1-(hydroxymethyl)ethyl]-5-methyl-1,2,3,4-tetrahydro-6-isoquinolinyl}-1,2,4-oxadiazol-5-yl)-2-[(1-methylethyl)oxy]benzonitrile]	≤ 1000	≤ 10
CNCCC(=O)N1CCc2ccc(-c3noc(-c4ccc(OC(C)C)c(C#N)c4)n3)cc2CC1 [Example 67, 5-{3-[3-(N-methyl-b-alanyl)-2,3,4,5-tetrahydro-1H-3-benzazepin-7-yl]-1,2,4-oxadiazol-5-yl}-2-[(1-methylethyl)oxy]benzonitrile]	≤ 100	≤ 100
CC(C)Oc1ccc(-c2nc(-c3ccc4c(c3)CCN(C(CO)CO)CC4)no2)cc1C#N [Example 68, 5-(3-{3-[2-hydroxy-1-(hydroxymethyl)ethyl]-2,3,4,5-tetrahydro-1H-3-benzazepin-7-yl}-1,2,4-oxadiazol-5-yl)-2-[(1-methylethyl)oxy]benzonitrile]	≤ 100	≤ 100

Results, then the compound that gave them:

EC50 [1] [nM]	EC50 [2] [nM]	SMILES
≤ 100	≤ 10	Cc1c(-c2noc(-c3ccc(OC(C)C)c(C#N)c3)n2)ccc2c1CCN(CCCC(N)=O)C2 [Example 4, 4-[6-(5-{3-Cyano-4-[(1-methylethyl)oxy]phenyl}-1,2,4-oxadiazol-3-yl)-5-methyl-3,4-dihydro-2(1H)-isoquinolinyl]butanamide]
≤ 100	≤ 10	CNC(=O)CCCN1CCc2c(ccc(-c3noc(-c4ccc(OC(C)C)c(C#N)c4)n3)c2C)C1 [Example 5, 4-[6-(5-{3-Cyano-4-[(1-methylethyl)oxy]phenyl}-1,2,4-oxadiazol-3-yl)-5-methyl-3,4-dihydro-2(1H)-isoquinolinyl]-N-methylbutanamide]
≤ 100	≤ 10	Cc1c(-c2noc(-c3ccc(OC(C)C)c(C#N)c3)n2)ccc2c1CCN(CC(O)CO)C2 (stereo not drawn) [Example 6, 5-{3-[2-(2,3-Dihydroxypropyl)-5-methyl-1,2,3,4-tetrahydro-6-isoquinolinyl]-1,2,4-oxadiazol-5-yl}-2-[(1-methylethyl)oxy]benzonitrile]
≤ 100	≤ 10	Cc1c(-c2noc(-c3ccc(OC(C)C)c(C#N)c3)n2)ccc2c1CCN(CCO)C2 [Example 7, 5-{3-[2-(2-Hydroxyethyl)-5-methyl-1,2,3,4-tetrahydro-6-isoquinolinyl]-1,2,4-oxadiazol-5-yl}-2-[(1-methylethyl)oxy]benzonitrile]
≤ 100	≤ 10	Cc1c(-c2noc(-c3ccc(OC(C)C)c(C#N)c3)n2)ccc2c1CCN(CCCO)C2 [Example 8, 5-{3-[2-(3-Hydroxypropyl)-5-methyl-1,2,3,4-tetrahydro-6-isoquinolinyl]-1,2,4-oxadiazol-5-yl}-2-[(1-methylethyl)oxy]benzonitrile]
≤ 100	≤ 100	COCCN1CCc2c(ccc(-c3noc(-c4ccc(OC(C)C)c(C#N)c4)n3)c2C)C1 [Example 9, 2-[(1-Methylethyl)oxy]-5-(3-{5-methyl-2-[2-(methyloxy)ethyl]-1,2,3,4-tetrahydro-6-isoquinolinyl}-1,2,4-oxadiazol-5-yl)benzonitrile]
≤ 100	≤ 10	Cc1c(-c2nnc(-c3ccc(OC(C)C)c(C#N)c3)s2)ccc2c1CCN(CCC(N)=O)C2 [Example 10, 3-[6-(5-{3-Cyano-4-[(1-methylethyl)oxy]phenyl}-1,3,4-thiadiazol-2-yl)-5-methyl-3,4-dihydro-2(1H)-isoquinolinyl]propanamide]
≤ 10	≤ 10	CNC(=O)CCN1CCc2c(ccc(-c3noc(-c4ccc(OC(C)C)c(C#N)c4)n3)c2C)C1 [Example 43, 3-[6-(5-{3-cyano-4-[(1-methylethyl)oxy]phenyl}-1,2,4-oxadiazol-3-yl)-5-methyl-3,4-dihydro-2(1H)-isoquinolinyl]-N-methylpropanamide]
≤ 10	≤ 10	CC(C)Oc1ccc(-c2nc(-c3ccc4c(c3)CCN(C(=O)CN)CC4)no2)cc1C#N [Example 48, 5-[3-(3-glycyl-2,3,4,5-tetrahydro-1H-3-benzazepin-7-yl)-1,2,4-oxadiazol-5-yl]-2-[(1-methylethyl)oxy]benzonitrile trifluoroacetate]
